IC50 data for 13 compounds are collected here from patent US9981916B2 (Genentech, Inc., priority 2013, dated 2018).

SMILES strings stand for the structures.

As usually defined, the IC50 is the concentration at which inhibition is half-maximal. Higher therefore signals a need for much substance.

The test has as its target T1, RORc ligand binding domain (Homo sapiens, UniProt P51449).
T1 construct: host or cells: E. coli
T1 sequence (P51449 269-508 limits assumed): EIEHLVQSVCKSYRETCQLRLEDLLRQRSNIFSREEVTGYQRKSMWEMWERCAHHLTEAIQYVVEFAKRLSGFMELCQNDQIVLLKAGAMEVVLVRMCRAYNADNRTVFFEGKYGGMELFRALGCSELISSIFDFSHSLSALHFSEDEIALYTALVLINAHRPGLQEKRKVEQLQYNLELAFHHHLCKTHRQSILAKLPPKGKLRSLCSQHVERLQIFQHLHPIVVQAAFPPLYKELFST
Nature of the test: In vitro RORc ligand binding assay (25-[3H]hydroxycholesterol displacement, filter binding). The note with it: 6 nM 25-[3H]hydroxycholesterol, 0.6 ug/mL RORc receptor, 3 h at 25° C. In short, it runs like this: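 Compounds in 5% DMSO, either dose-response or screened at 1 and 10 uM, competed with 6 nM 25-[3H]hydroxycholesterol for 0.6 ug/mL RORc over 3 h at 25° C (HEPES pH 7.4, NaCl, MgCl2, DTT, BSA buffer). Bound tracer was filter-harvested and counted; nonspecific binding came from 1 uM 25-hydroxycholesterol.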
`Cc1nc([C@@]23CC[C@@H](c4cc(-c5c(F)cccc5F)nnc42)C3(C)C)no1` [Example 80, (5R,8R)-3-(2,6-difluorophenyl)-9,9-dimethyl-8-(5-methyl-1,2,4-oxadiazol-3-yl)-5,6,7,8-tetrahydro-5,8-methanocinnoline] gave an IC50 of 136 nM.

Take `CC(=O)N[C@@]12CC[C@@H](c3cc(-c4ccccc4F)nnc31)C2(C)C` [Example 81, N-[(5R,8R)-3-(2-fluorophenyl)-9,9-dimethyl-6,7-dihydro-5,8-methanocinnolin-8(5H)-yl]acetamide]: the IC50 was 2070 nM. On to `CN(C)C(=O)[C@@]12CC[C@@H](c3cc(-c4c(F)cccc4F)nnc31)C2(C)C` [Example 82, (5R,8R)-3-(2,6-difluorophenyl)-N,N,9,9-tetramethyl-6,7-dihydro-5,8-methanocinnoline-8(5H)-carboxamide], for which the IC50 came out at 856 nM.

In turn, `COCC(=O)N[C@@]12CC[C@@H](c3cc(-c4ccccc4F)nnc31)C2(C)C` [Example 83, N-[(5R,8R)-3-(2-fluorophenyl)-9,9-dimethyl-6,7-dihydro-5,8-methanocinnolin-8(5H)-yl]-2-methoxyacetamide] registered a concentration for half-maximal inhibition (IC50) of 1170 nM. For `Cc1nnc(NC(=O)[C@]23CC[C@H](c4cc(-c5c(F)cccc5F)nnc42)C3(C)C)o1` [Example 84, (5S,8S)-3-(2,6-difluorophenyl)-9,9-dimethyl-N-(5-methyl-1,3,4-oxadiazol-2-yl)-6,7-dihydro-5,8-methanocinnoline-8(5H)-carboxamide], the IC50 amounted to 1010 nM. With `Cc1noc(NC(=O)[C@]23CC[C@H](c4cc(-c5c(F)cccc5F)nnc42)C3(C)C)n1` [Example 85, (5S,8S)-3-(2,6-difluorophenyl)-9,9-dimethyl-N-(3-methyl-1,2,4-oxadiazol-5-yl)-6,7-dihydro-5,8-methanocinnoline-8(5H)-carboxamide], the IC50 was found to be 5650 nM. On to `CC1(C)[C@@H]2CC[C@@]1(C(=O)N1CC(O)C1)c1nnc(-c3c(F)cccc3F)cc12` [Example 86, [(5S,8S)-3-(2,6-difluorophenyl)-9,9-dimethyl-6,7-dihydro-5,8-methanocinnolin-8(5H)-yl](3-hydroxyazetidin-1-yl)methanone], for which the IC50 came to 97 nM.

For the compound `CC(C)C(=O)N[C@@]12CC[C@@H](c3cc(-c4ccccc4F)nnc31)C2(C)C` [Example 87, N-[(5R,8R)-3-(2-fluorophenyl)-9,9-dimethyl-6,7-dihydro-5,8-methanocinnolin-8(5H)-yl]-2-methylpropanamide], the IC50 was 5190 nM. The figure for `CC1(C)[C@H]2CC[C@]1(NC(=O)CO)c1nnc(-c3ccccc3F)cc12` [Example 88, N-[(5R,8R)-3-(2-fluorophenyl)-9,9-dimethyl-6,7-dihydro-5,8-methanocinnolin-8(5H)-yl]-2-hydroxyacetamide] is 1440 nM; for `CN(C)CC(=O)N[C@@]12CC[C@@H](c3cc(-c4ccccc4F)nnc31)C2(C)C` [Example 89, N-[(5R,8R)-3-(2-fluorophenyl)-9,9-dimethyl-6,7-dihydro-5,8-methanocinnolin-8(5H)-yl]-N~2~,N~2~- dimethylglycinamide] it is 5190 nM.

For the compound `CN(C)[C@@]12CC[C@@H](c3cc(-c4ccccc4F)nnc31)C2(C)C` [Example 90, (5R,8R)-3-(2-fluorophenyl)-N,N,9,9-tetramethyl-6,7-dihydro-5,8-methanocinnolin-8(5H)-amine], the IC50 worked out at 192 nM.

As for `CONC(=O)[C@]12CC[C@H](c3cc(-c4c(F)cccc4F)nnc31)C2(C)C` [Example 91, (5S,8S)-3-(2,6-difluorophenyl)-N-methoxy-9,9-dimethyl-6,7-dihydro-5,8-methanocinnoline-8(5H)-carboxamide], the half-inhibitory concentration (IC50) stood at 384 nM. `CC1(O)CN(C(=O)[C@]23CC[C@H](c4cc(-c5c(F)cccc5F)nnc42)C3(C)C)C1` [Example 92, [(5S,8S)-3-(2,6-difluorophenyl)-9,9-dimethyl-6,7-dihydro-5,8-methanocinnolin-8(5H)-yl](3-hydroxy-3-methylazetidin-1-yl)methanone] registered an IC50 of 2990 nM.
